Legend:
[1] = tested on: SUNE1 (human nasopharyngeal carcinoma, cisplatin sensitive); experiment: MTT cytotoxicity, SUNE1; assay type: cell-based; conditions: 72 h
Description: (§1) The cytotoxicities of the gold(III) compounds toward several human cancer cell lines including nasopharyngeal carcinoma (SUNE1, and its cisplatin variant CNE1), hepatocellular carcinoma (HepG2), and cervical epitheloid carcinoma (HeLa) were determined using a well-established MTT assay.

[2] = tested on: CNE1 (human nasopharyngeal carcinoma, cisplatin resistance); experiment: MTT cytotoxicity, CNE1; assay type: cell-based; conditions: 72 h
Description: as §1

[3] = tested on: HeLa (human cervical epithelioid carcinoma); experiment: MTT cytotoxicity, HeLa; assay type: cell-based; conditions: 72 h
Description: as §1

[4] = tested on: HepG2 (human hepatocellular carcinoma); experiment: MTT cytotoxicity, HepG2; assay type: cell-based; conditions: 72 h
Description: as §1

[5] = Cyclic voltammetry in DMF; assay type: physicochemical; conditions: comparison value
Source text: The electrochemical properties of the gold(III) compounds in DMF were studied by cyclic voltammetry. As compared to KAuCl4 [E°gold(III)→gold(I)=−0.4 V], the substantially more cathodic potentials of −1.43 to −1.83 V vs Cp2Fe^+/0 required for the gold(III) reduction in all the gold(III) compounds is consistent with stabilization of gold(III) by the dianionic CNC ligand.

[6] = tested on: several human cancer cell lines; experiment: Cytotoxic activities against several cancer cell lines (MTT); assay type: cell-based
Description: as §1
A number of structurally distinct gold(III)-phosphino compounds (3a-g) were synthesized and assayed for cytotoxic activities against several cancer cell lines (see Table 1). […] Whereas, shortening (n=1 or 2) or lengthening (n=4, 5 or 6) the hydrocarbon linker reduced the cytotoxicity, with IC50 values increasing by at least an order of magnitude.

100-base pair DNA ladder = experiment: Gel mobility shift assay (DNA intercalation); assay type: binding; conditions: 1.5% agarose gel, DNA 50 μM bp-1
Description: A gel mobility shift assay was employed to determine the intercalating property 3d [E. C. Long, J. K. Barton, Acc. Chem. Res. 1990, 23, 271] to evaluate the effect 3d, had upon the DNA binding affinities. A 100-base pair DNA ladder treated with 3d, or ethidium bromide (EB, DNA intercalator) as well as a control were resolved by agarose gel electrophoresis. Briefly, gel electrophoresis of 100-bp DNA ladder on a 1.5% (w/v) agarose gel was performed showing the mobility of DNA (50 μM bp-1) in the absence or presence of ethidium bromide (EB), or compound 3d. […] The bound DNA would have lower mobility compared to that of the free DNA.

[7] = Solution stability (UV-vis, NMR); assay type: physicochemical; conditions: 24 h
SUNE1 cells = experiment: Cell cycle analysis by flow cytometry (propidium iodide); assay type: cell-based, human; conditions: 24- or 48-h incubation
Description: To find out whether cellular DNA is a major target of the gold(III) compounds, we studied the cell cycle profiles of 3d-treated cancer cells. Cell cycle analysis was performed by assessing the DNA content of cells stained with propidium iodide using flow cytometry. This enables quantification of the total cellular populations in the different phases of the cell cycle (G0/G1, S and G2/M). […] Compound 3d appears to affect its cytotoxicity via some alternative mechanistic pathways.

cancers = experiment: Potency against cancers compared with cis-platin
nude mice = experiment: In vivo toxicity studies in nude mice

| SMILES | IC50 [1] | IC50 [2] | IC50 ratio (CNE1/SUNE1), resistance factor [2] | IC50 [3] | IC50 [4] | E° gold(III)→gold(I) [5] | Relative cytotoxicity among metal-free and metallated 1,2-bis(diphenylphosphino)Cn compounds [6] | DNA intercalation (tailing effect in gel) (100-base pair DNA ladder) | Stability on standing in DMSO or TBS (UV-vis, 31P, 1H NMR) [7] | Effect on cell cycle (SUNE1 cells) | potency against cancers relative to cis-platin (cancers) | toxicity to nude mice (nude mice; concentrations 20-fold higher than the effective dose) | DNA mutation upon usage (nude mice; mouse, in vivo) |
| --- | --- | --- | --- | --- | --- | --- | --- | --- | --- | --- | --- | --- | --- |
| c1ccc([P+](c2ccccc2)(c2ccccc2)[Au-]23[c]4ccccc4-c4cccc([n+]42)-c2cccc[c]23)cc1 [3a] | 17000 ± 2000 nM | 11000 ± 2000 nM | 0.65 | – | – | – | – | – | – | – | – | – | – |
| O=S(=O)([O-])C(F)(F)F.O=S(=O)([O-])C(F)(F)F.c1ccc([P+](CCCC[P+](c2ccccc2)(c2ccccc2)[Au-]23[c]4ccccc4-c4cccc([n+]42)-c2cccc[c]23)(c2ccccc2)[Au-]23[c]4ccccc4-c4cccc([n+]42)-c2cccc[c]23)cc1 [3e, [Au2(CNC)2(μ-dppb)](CF3SO3)2] | 1500 ± 200 nM | 2200 ± 300 nM | 1.5 | 2400 ± 200 nM | – | – | – | – | – | – | – | – | – |
| O=S(=O)([O-])C(F)(F)F.O=S(=O)([O-])C(F)(F)F.c1ccc([P+](CCCCC[P+](c2ccccc2)(c2ccccc2)[Au-]23[c]4ccccc4-c4cccc([n+]42)-c2cccc[c]23)(c2ccccc2)[Au-]23[c]4ccccc4-c4cccc([n+]42)-c2cccc[c]23)cc1 [3f, [Au2(CNC)2(μ-dpppe)](CF3SO3)2] | 1600 ± 300 nM | 2500 ± 300 nM | 1.6 | 1500 ± 300 nM | – | – | – | – | – | – | – | – | – |
| O=S(=O)([O-])C(F)(F)F.O=S(=O)([O-])C(F)(F)F.c1ccc([P+](CCCCCC[P+](c2ccccc2)(c2ccccc2)[Au-]23[c]4ccccc4-c4cccc([n+]42)-c2cccc[c]23)(c2ccccc2)[Au-]23[c]4ccccc4-c4cccc([n+]42)-c2cccc[c]23)cc1 [3g, [Au2(CNC)2(μ-dpph)](CF3SO3)2] | 4300 ± 900 nM | 3200 ± 500 nM | 0.74 | 3200 ± 400 nM | – | – | – | – | – | – | – | – | – |
| O=S(=O)([O-])C(F)(F)F.O=S(=O)([O-])C(F)(F)F.O=S(=O)([O-])C(F)(F)F.c1ccc([P+](CC[P+](c2ccccc2)(c2ccccc2)[Au-]23[c]4ccccc4-c4cccc([n+]42)-c2cccc[c]23)(CC[P+](c2ccccc2)(c2ccccc2)[Au-]23[c]4ccccc4-c4cccc([n+]42)-c2cccc[c]23)[Au-]23[c]4ccccc4-c4cccc([n+]42)-c2cccc[c]23)cc1 [3h, [Au3(CNC)3(μ-dpep)](CF3SO3)3] | 260 ± 30 nM | 400 ± 50 nM | 1.5 | 930 ± 90 nM | 3800 ± 600 nM | – | – | – | – | – | – | – | – |
| [Cl][Au-]([Cl])([Cl])[Cl].[K+] [KAuCl4] | – | – | – | – | – | −0.4 V | – | – | – | – | – | – | – |
| [Cl-].[Cl][Pt-2]12[n+]3ccccc3-c3cccc([n+]31)-c1cccc[n+]12 [[Pt(terpy)Cl]Cl, reference compound] | 11000 ± 3000 nM | 13000 ± 2000 nM | 1.2 | 14000 ± 2000 nM | 23000 ± 3000 nM | – | – | – | – | – | – | – | – |
| N.N.[Cl][Pt][Cl] [cisplatin, reference compound] | 1000 ± 100 nM | 3300 ± 500 nM | 3.3 | 11000 ± 1000 nM | 1600 ± 200 nM | – | – | – | – | – | – | – | – |
| O=S(=O)([O-])C(F)(F)F.O=S(=O)([O-])C(F)(F)F.c1ccc([P+](CCC[P+](c2ccccc2)(c2ccccc2)[Au-]23[c]4ccccc4-c4cccc([n+]42)-c2cccc[c]23)(c2ccccc2)[Au-]23[c]4ccccc4-c4cccc([n+]42)-c2cccc[c]23)cc1 [compound 3d, [Au2(CNC)2(μ-dppp)](CF3SO3)2] | 55 nM | 91 nM | 1.7 | 43 nM | 210 ± 90 nM | – | most cytotoxic | does not bind to DNA by intercalation | no UV-vis, ^31P or ^1H NMR spectral changes | did not significantly affect the cell cycle | about 200 times | non-toxic | does not cause DNA mutation |

From patent US7632827B2, “Anti-cancer phosphine containing [AuIIIm(CNC)mL]n+ complexes and derivatives thereof and methods for treating cancer using such compositions” (The University of Hong Kong, priority 2006, dated 2009)
